{"source": "patent US20050239143A1", "about": "“Immunocapture-based measurements of mammalian pyruvate dehydrogenase complex” (priority 2002, published 2005)", "key": {"[1]": {"test_system": "T1, immunocaptured human heart PDH complex", "T1 construct": "tissue Analytic Biological Services, Inc; host or cells: human heart mitochondria, lauryl maltoside solubilized, captured on anti-E2 mAb plates", "assay": "Immunocapture microplate PDH activity assay (NADH production) with known inhibitors and activators", "format": "biochemical", "conditions": "agent added to wells with already immunocaptured PDH; unmodified human heart PDH control = 100%", "method": "FIG. 3 is a graph summarizing the results of tests for specific inhibition and activation of immunocaptured PDH activity. Known inhibitors and activators as shown were added directly to wells of microtiter plates and incubated with already immunocaptured PDH. Activity of the complex was monitored by measuring production of NADH per min/mg mitochondrial protein. Unmodified activity of human heart PDH (control) was set to 100%.\n96-well ELISA plates (Falcon Probind) were coated with Goat-anti-mouse IgG Fc specific antibody (0.5 μg/well) in PBS buffer overnight at 4° C. After 3 washings, wells were coated with monoclonal anti-PDH-E2 subunit at 0.5 μg/well and incubated for 1-2 hours at room temperature. The wells were washed 3-4 times and covered with a 0.5% bovine serum albumin solution for 1 hour to minimize non-specific protein binding to the wells. After blocking, wells were washed 5 times and 100 μl of solubilized mitochondria applied and incubated in the wells at room temperature for 1 hour. After incubation, the supernatant was collected and reapplied to a second antibody-covered plate to test for residual activity.\n100 μl/well of the reaction mixture (50 mM Tris, pH 7.5; 2 mM β-NAD+, 225 μM TPP, 2 mM pyruvate, 150 μM Coenzyme A, 2.6 mM cysteine, 1 mM MgCl2) was applied and NADH production was monitored either spectrophotometrically at […] or by measuring fluorescence in the presence of 15 μM resazurin and 0.5 U/ml diaphorase using an excitation wavelength of 530 nm and an emission wavelength of 590 nm for up to […]. […] Activity was calculated as nMol NADH/min/mg of mitochondrial protein.\nMonoclonal anti-E2 antibodies were attached to 96-well microplates to which had been prebound goat anti-mouse IgG Fc mAbs, as described in Materials and Methods. […] Unbound protein was removed by extensive washings and NADH production then measured by the increase of absorbance at 340 nm or by coupled fluorescence assay, in the presence of NAD+, pyruvate, CoA, TPP, MgCl2, and cysteine as a reducing agent in 50 mM Tris-HCl buffer pH 7.8. […]"}, "[2]": {"test_system": "E1α subunit of immunoprecipitated PDH complex", "assay": "2D-gel isoelectric focusing and Western blot with E1α-specific mAb to follow phosphorylation of immunoprecipitated PDH", "conditions": "pH gradient 10 to 3; compared with untreated enzyme"}}, "note": "Entries after “also recorded” stand apart in the source; their conditions may differ.", "data": [{"smiles": "O=C(O)C(Cl)Cl", "note": "[Dichloroacetate]", "values": [{"measurement": "Increase of PDH activity", "setting": "[1]", "value": 34, "unit": "%"}]}, {"smiles": "Nc1ncnc2c1ncn2[C@@H]1O[C@H](COP(=O)(O)OP(=O)(O)OP(=O)(O)O)[C@@H](O)[C@H]1O", "note": "[ATP]", "values": [{"measurement": "Inhibition of immunocaptured PDH activity", "setting": "[1]", "value": "about 70%"}, {"measurement": "Level of phosphorylation of E1α (isoelectric point shift)", "setting": "[2]", "value": "greatly increased the level of phosphorylation; also recorded: increases the phosphorylation patterns of E1α"}]}, {"smiles": "O=[As]O", "note": "[sodium arsenite]", "values": [{"measurement": "Inhibition of immunocaptured PDH activity", "setting": "[1]", "value": "> 98", "unit": "%"}]}]}
